Measurements taken from ChEMBL document CHEMBL5518240 (J Med Chem, 2024).
The source made the active and inactive calls. The rule behind the calls is not given here.

Experiments:
VCaP [1] = assay: Reduction in AR gene expression in AR positive human VCaP cells assessed as reduction in mRNA level at 100 nM measured after 6 hrs by qRT-PCT analysis relative to control; assay type: functional, cell-based
VCaP [2] = assay: Antiproliferative activity against AR positive human VCaP cells assessed inhibition of cell growth measured after 4 days by CellTiter-Glo Luminescent cell viability assay; assay type: functional, cell-based; settings: 96 h
CWR22R [3] = assay: Antiproliferative activity against AR positive human 22Rv1 cells assessed inhibition of cell growth measured after 4 days by CellTiter-Glo Luminescent cell viability assay; assay type: functional, cell-based; settings: 22Rv1, 96 h
LNCaP [4] = assay: Antiproliferative activity against AR positive human LNCaP cells assessed inhibition of cell growth measured after 4 days by CellTiter-Glo Luminescent cell viability assay; assay type: functional, cell-based; settings: 96 h
VCaP [5] = assay: Reduction in c-Myc gene expression in AR positive human VCaP cells assessed as reduction in mRNA level at 100 nM measured after 6 hrs by qRT-PCT analysis relative to control; assay type: functional, cell-based
LNCaP [6] = assay: Reduction in c-Myc gene expression in AR positive human LNCaP cells assessed as reduction in mRNA level at 100 nM measured after 6 hrs by qRT-PCT analysis relative to control; assay type: functional, cell-based
LNCaP [7] = assay: Reduction in AR gene expression in AR positive human LNCaP cells assessed as reduction in mRNA level at 100 nM measured after 6 hrs by qRT-PCT analysis relative to control; assay type: functional, cell-based
CWR22R [8] = assay: Reduction in c-Myc gene expression in AR positive human 22Rv1 cells assessed as reduction in mRNA level at 100 nM measured after 6 hrs by qRT-PCT analysis relative to control; assay type: functional, cell-based
CWR22R [9] = assay: Reduction in AR gene expression in AR positive human 22Rv1 cells assessed as reduction in mRNA level at 100 nM measured after 6 hrs by qRT-PCT analysis relative to control; assay type: functional, cell-based
[10] = target: T1, Protein cereblon/CREB-binding protein (Homo sapiens, UniProt Q92793+Q96SW2); assay: PROTAC activity at CBP/CRBN in human VCaP cells assessed as protein degradation incubated for 4 hrs by Western blot analysis; assay type: cell-based
[11] = target: T1, Protein cereblon/CREB-binding protein; assay: PROTAC activity at CBP/CRBN in human VCaP cells assessed as maximal protein degradation at 1 uM incubated for 4 hrs by Western blot analysis relative to control; assay type: cell-based
[12] = target: T2, Protein cereblon/Histone acetyltransferase p300 (Homo sapiens, UniProt Q09472+Q96SW2); assay: PROTAC activity at p300/CRBN in human VCaP cells assessed as protein degradation incubated for 4 hrs by Western blot analysis; assay type: cell-based
[13] = target: T2, Protein cereblon/Histone acetyltransferase p300; assay: PROTAC activity at p300/CRBN in human VCaP cells assessed as maximal protein degradation at 1 uM incubated for 4 hrs by Western blot analysis relative to control; assay type: cell-based
Target sequence in this assay (Q09472 2-2414 limits assumed): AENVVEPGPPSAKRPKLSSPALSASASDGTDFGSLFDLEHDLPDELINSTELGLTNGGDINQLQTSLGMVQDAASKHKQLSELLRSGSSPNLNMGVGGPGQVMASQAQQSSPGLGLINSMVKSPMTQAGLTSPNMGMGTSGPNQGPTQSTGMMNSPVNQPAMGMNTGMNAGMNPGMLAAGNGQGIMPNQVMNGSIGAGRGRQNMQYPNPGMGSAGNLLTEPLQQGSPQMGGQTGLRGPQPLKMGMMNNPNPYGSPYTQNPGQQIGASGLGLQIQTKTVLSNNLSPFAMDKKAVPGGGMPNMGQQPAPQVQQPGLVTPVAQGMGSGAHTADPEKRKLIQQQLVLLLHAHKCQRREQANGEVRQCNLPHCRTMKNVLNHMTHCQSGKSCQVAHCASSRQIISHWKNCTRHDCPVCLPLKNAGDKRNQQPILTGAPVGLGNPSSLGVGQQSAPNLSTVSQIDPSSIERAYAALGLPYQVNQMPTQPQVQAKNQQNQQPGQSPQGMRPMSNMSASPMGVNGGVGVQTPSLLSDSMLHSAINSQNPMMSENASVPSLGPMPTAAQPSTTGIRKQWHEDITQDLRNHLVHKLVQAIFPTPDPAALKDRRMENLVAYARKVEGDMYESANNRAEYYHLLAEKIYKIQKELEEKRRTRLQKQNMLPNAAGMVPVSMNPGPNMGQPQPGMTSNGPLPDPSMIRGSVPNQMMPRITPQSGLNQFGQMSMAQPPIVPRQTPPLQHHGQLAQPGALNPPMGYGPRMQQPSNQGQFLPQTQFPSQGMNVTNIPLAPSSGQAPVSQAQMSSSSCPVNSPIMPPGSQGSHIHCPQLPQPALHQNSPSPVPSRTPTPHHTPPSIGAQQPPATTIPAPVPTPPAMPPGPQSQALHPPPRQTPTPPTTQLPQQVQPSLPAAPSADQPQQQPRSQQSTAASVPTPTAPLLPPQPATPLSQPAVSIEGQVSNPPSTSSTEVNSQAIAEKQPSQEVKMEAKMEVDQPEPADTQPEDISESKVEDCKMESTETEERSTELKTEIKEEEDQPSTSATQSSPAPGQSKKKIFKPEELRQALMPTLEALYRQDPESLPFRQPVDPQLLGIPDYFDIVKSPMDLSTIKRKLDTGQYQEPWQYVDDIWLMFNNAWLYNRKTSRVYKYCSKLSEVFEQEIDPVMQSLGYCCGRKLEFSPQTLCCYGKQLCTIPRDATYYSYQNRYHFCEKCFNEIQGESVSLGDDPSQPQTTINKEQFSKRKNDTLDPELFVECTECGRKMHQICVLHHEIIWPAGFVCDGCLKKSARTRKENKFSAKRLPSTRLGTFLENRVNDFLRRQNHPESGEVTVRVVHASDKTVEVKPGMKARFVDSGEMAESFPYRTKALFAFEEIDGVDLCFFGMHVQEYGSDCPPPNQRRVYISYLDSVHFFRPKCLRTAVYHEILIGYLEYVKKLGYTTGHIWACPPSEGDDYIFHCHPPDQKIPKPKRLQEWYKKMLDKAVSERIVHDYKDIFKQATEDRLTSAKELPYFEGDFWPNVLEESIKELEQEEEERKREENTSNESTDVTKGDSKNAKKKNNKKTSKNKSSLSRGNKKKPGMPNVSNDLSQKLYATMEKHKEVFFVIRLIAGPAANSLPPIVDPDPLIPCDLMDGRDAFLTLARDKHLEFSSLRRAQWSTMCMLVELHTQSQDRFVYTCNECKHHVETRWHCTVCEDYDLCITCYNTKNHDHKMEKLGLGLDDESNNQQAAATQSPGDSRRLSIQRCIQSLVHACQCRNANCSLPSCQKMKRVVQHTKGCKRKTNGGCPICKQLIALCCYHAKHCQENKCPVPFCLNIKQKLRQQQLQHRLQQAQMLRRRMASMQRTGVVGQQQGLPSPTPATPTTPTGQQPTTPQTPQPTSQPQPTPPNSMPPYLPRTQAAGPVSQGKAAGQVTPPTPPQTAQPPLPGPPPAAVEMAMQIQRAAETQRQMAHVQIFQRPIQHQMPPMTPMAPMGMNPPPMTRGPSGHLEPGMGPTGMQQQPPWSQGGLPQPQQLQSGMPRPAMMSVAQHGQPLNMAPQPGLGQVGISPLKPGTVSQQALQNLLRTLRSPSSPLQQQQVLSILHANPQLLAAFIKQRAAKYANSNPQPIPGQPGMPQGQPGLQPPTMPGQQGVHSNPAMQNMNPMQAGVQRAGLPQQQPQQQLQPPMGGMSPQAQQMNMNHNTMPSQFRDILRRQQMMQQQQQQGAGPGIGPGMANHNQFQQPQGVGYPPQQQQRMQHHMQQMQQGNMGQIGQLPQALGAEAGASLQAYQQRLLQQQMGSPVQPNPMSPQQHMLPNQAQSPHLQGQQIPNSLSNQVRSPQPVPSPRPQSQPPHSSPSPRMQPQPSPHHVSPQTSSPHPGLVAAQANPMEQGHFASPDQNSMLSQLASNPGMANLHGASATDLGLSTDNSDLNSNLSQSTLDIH
Target sequence in this assay (Q96SW2 whole entry partner): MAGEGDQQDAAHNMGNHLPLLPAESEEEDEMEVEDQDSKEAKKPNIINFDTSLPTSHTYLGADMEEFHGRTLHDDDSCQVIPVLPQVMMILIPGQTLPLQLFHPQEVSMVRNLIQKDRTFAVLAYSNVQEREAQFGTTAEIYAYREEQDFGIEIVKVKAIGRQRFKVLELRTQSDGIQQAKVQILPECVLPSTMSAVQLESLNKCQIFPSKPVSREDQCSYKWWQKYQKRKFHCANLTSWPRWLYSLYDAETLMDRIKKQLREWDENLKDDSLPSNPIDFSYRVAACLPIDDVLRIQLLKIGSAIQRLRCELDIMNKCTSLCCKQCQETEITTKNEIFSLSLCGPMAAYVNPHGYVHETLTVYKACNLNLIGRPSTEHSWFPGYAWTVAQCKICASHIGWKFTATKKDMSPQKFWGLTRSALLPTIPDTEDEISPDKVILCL

[14] = target: T1, Protein cereblon/CREB-binding protein; assay: Potency index, ratio of […] DC50 to test compound DC50 for PROTAC activity at CBP/CRBN in human VCaP cells assessed as protein degradation incubated for 4 hrs by Western blot analysis; assay type: cell-based
[15] = target: T2, Protein cereblon/Histone acetyltransferase p300; assay: Potency index, ratio of CPBD-409 DC50 to test compound DC50 for PROTAC activity at p300/CRBN in human VCaP cells assessed as protein degradation incubated for 4 hrs by Western blot analysis; assay type: cell-based
Target sequence in this assay (Q09472 2-2414 limits assumed): as the sequence (Q09472 2-2414 limits assumed) above
Target sequence in this assay (Q96SW2 whole entry partner): as the sequence (Q96SW2 whole entry partner) above

VCaP [16] = assay: Reduction in KLK3 gene expression in AR positive human VCaP cells assessed as reduction in mRNA level at 1000 nM measured after 6 hrs by qRT-PCT analysis; assay type: functional, cell-based
VCaP [17] = assay: Reduction in AR gene expression in AR positive human VCaP cells assessed as reduction in mRNA level at 1000 nM measured after 6 hrs by qRT-PCT analysis; assay type: functional, cell-based
VCaP [18] = assay: Reduction in c-Myc gene expression in AR positive human VCaP cells assessed as reduction in mRNA level at 1000 nM measured after 6 hrs by qRT-PCT analysis; assay type: functional, cell-based
LNCaP [19] = assay: Reduction in KLK3 gene expression in AR positive human LNCaP cells assessed as reduction in mRNA level at 1000 nM measured after 6 hrs by qRT-PCT analysis; assay type: functional, cell-based
LNCaP [20] = assay: Reduction in AR gene expression in AR positive human LNCaP cells assessed as reduction in mRNA level at 1000 nM measured after 6 hrs by qRT-PCT analysis; assay type: functional, cell-based
LNCaP [21] = assay: Reduction in c-Myc gene expression in AR positive human LNCaP cells assessed as reduction in mRNA level at 1000 nM measured after 6 hrs by qRT-PCT analysis; assay type: functional, cell-based
CWR22R [22] = assay: Reduction in KLK3 gene expression in AR positive human 22Rv1 cells assessed as reduction in mRNA level at 1000 nM measured after 6 hrs by qRT-PCT analysis; assay type: functional, cell-based
CWR22R [23] = assay: Reduction in AR gene expression in AR positive human 22Rv1 cells assessed as reduction in mRNA level at 1000 nM measured after 6 hrs by qRT-PCT analysis; assay type: functional, cell-based
CWR22R [24] = assay: Reduction in c-Myc gene expression in AR positive human 22Rv1 cells assessed as reduction in mRNA level at 1000 nM measured after 6 hrs by qRT-PCT analysis; assay type: functional, cell-based
VCaP [25] = assay: Antitumor activity against human VCaP cells xenografted in CB17 SCID mouse model assessed as tumor growth inhibition at 30 mg/kg, po qd scheduled 5 days in a week measured on day 63; assay type: functional; settings: 1512 h, time 63 day, read-out: TGI
VCaP [26] = assay: Antitumor activity against human VCaP cells xenografted in CB17 SCID mouse model assessed as tumor growth inhibition at 20 mg/kg, po qd scheduled 5 days in a week measured on day 63; assay type: functional; settings: 1512 h, time 63 day, read-out: TGI
[27] = target: Bromodomain-containing protein 4 (Homo sapiens, UniProt O60885); assay: Binding affinity to BRD4 (unknown origin) by SPR assay

IC50 (VCaP [2]) [nM]	IC50 (LNCaP [4]) [nM]	SMILES	IC50 (CWR22R [3]) [nM]	Activity (VCaP [16])	Activity (VCaP [17])	Activity (VCaP [18])	Activity (LNCaP [19])	Activity (LNCaP [20])	Activity (LNCaP [21])	Activity (CWR22R [22])	Activity (CWR22R [23])	Activity (CWR22R [24])	inhibition in vivo at 20 mg/kg (VCaP [26]) [%]	also measured
219	124	N#Cc1ccc(O[C@H]2CC[C@H](NC(=O)c3ccc(N4CCC(CN5CCN(c6cc7c(cc6F)C(=O)N(C6CCC(=O)NC6=O)C7=O)CC5)CC4)nn3)CC2)cc1Cl (stereo not given in full) [BAVDEGALUTAMIDE]	316	–	–	–	–	–	–	–	–	–	–	Activity (VCaP [1]): Active; Activity (VCaP [5]): Active; Activity (LNCaP [6]): inactive; Activity (LNCaP [7]): inactive; Activity (CWR22R [8]): inactive; Activity (CWR22R [9]): inactive
–	–	CC(=O)N1CCc2c(c(N3CCCc4cc(-c5cnn(C)c5)c(C(F)F)cc43)nn2[C@H]2CC[C@H](CN3CCN(c4cc5c(cc4F)C(=O)N(C4CCC(=O)NC4=O)C5=O)CC3)CC2)C1 (stereo not given in full)	–	–	–	–	–	–	–	–	–	–	–	DC50 [10]: 1.2 nM; Emax [11]: 94%; DC50 [12]: 1.2 nM; Emax [13]: 94%; Ratio [14]: 4; Ratio [15]: 4
216	7000	CC(=O)N1CCc2c(c(N3CCCc4cc(-c5cnn(C)c5)c(C(F)F)cc43)nn2C2CCOCC2)C1	> 1000	Active	Active	Active	Active	Active	Active	Active	Active	Active	–	inhibition in vivo at 30 mg/kg (VCaP [25]): 46%
9500	8000	CNC(=O)c1ccc(N2C(=S)N(c3ccc(C#N)c(C(F)(F)F)c3)C(=O)C2(C)C)cc1F [ENZALUTAMIDE]	> 1000	Active	inactive	Active	Active	inactive	Active	Active	inactive	Active	2.8	–

SMILES	IC50 (VCaP [2]) [nM]	IC50 (LNCaP [4]) [nM]	IC50 (CWR22R [3]) [nM]	Activity (VCaP [16])	Activity (VCaP [17])	Activity (VCaP [18])	Activity (LNCaP [19])	Activity (LNCaP [20])	Activity (LNCaP [21])	Activity (CWR22R [22])	Activity (CWR22R [23])	Activity (CWR22R [24])	inhibition in vivo at 20 mg/kg (VCaP [26]) [%]	also measured
CO[C@H]1CC[C@H](n2c([C@@H]3CCCC(=O)N3c3ccc(F)c(F)c3)nc3cc(-c4c(C)noc4C)ccc32)CC1 [INOBRODIB]	53.6	412	184	Active	Active	Active	Active	Active	Active	Active	Active	Active	42	Kd [27]: 222 nM
